# Measurements: paper PMC7316778 (Nature Communications, 2020)
# Where “and” joins values, the source holds several entries; their conditions need not be identical. Identical values can stand only once. Like-named read-outs stand apart in the source and are kept apart here.
# Legend:
# CHEK2 (CHK2) = CHEK2 (CHK2) (Homo sapiens, UniProt O96017); assay: SelectScreen kinase assay
# Method: (§1) Selectivity profiling assays were performed by the Invitrogen SelectScreen™ Services. […] The concentration of ATP was selected to be equal to the KM, unless indicated otherwise.
# PAK1 = PAK1 (Homo sapiens, UniProt Q13153); assay: SelectScreen kinase assay
# Method: as §1
# BMPR1A (ALK3) = BMPR1A (ALK3) (Homo sapiens, UniProt P36894); assay: SelectScreen kinase assay; details: for Inhibition at 1 µM (%): BMPR1A (ALK3), LanthaScreen Binding
# Method: as §1
# CDK13/cyclin K = CDK13/cyclin K (Homo sapiens, UniProt Q14004); assay: SelectScreen kinase assay; type: biochemical
# DAPK2 = DAPK2 (Homo sapiens, UniProt Q9UIK4); assay: SelectScreen kinase assay; details: for Inhibition at 1 µM (%): DAPK2, LanthaScreen Binding
# Method: as §1
# HIPK1 (Myak) = HIPK1 (Myak) (Homo sapiens, UniProt Q86Z02); assay: SelectScreen kinase assay; details: for Inhibition at 1 µM (%): HIPK1 (Myak), ZLYTE, ATP Km app
# Method: as §1
# AMPK A2/B1/G1 = AMPK A2/B1/G1 (Homo sapiens, UniProt P54646); assay: SelectScreen kinase assay
# Method: as §1
# endogenous FES^S700C = endogenous FES^S700C (Homo sapiens, UniProt P07332, S700C); assay: Gel-based target engagement in HL-60 neutrophils
# Method: Data represent means ± SEM.
# The term in situ is used to designate experiments in which live cell cultures are treated with inhibitor, whereas the term in vitro refers to experiments in which the inhibitor is incubated with cell lysates. Compounds were diluted in growth medium from a 1000x concentrated stock solution in DMSO. […] After 48 h, cells were treated with compound for 1 h. Cells were collected by suspension in PBS and centrifuged (1000g, 5 min, rt). Pellets were flash-frozen in liquid nitrogen and stored at −80 °C until use. For in situ treatment post-differentiation, HL-60 cells were differentiated as described above and incubated with compound for 1 h unless specified otherwise. Cells were collected by suspension for non-adherent cells and trypsinization for adherent cells. After collection, cells were centrifuged (200g, 5 min, rt) and washed in equal volume of PBS (1000g, 5 min, rt). Cell pellets were flash-frozen in liquid nitrogen and stored at −80 °C until use.
# PASK = PASK (Homo sapiens, UniProt Q96RG2); assay: SelectScreen kinase assay; details: for Inhibition at 1 µM (%): PASK, ZLYTE, ATP Km app
# Method: as §1
# MAP4K3 (GLK) = target: T1, MAP4K3 (GLK) (Homo sapiens, UniProt Q8IVH8); assay: SelectScreen kinase assay
# T1 sequence (Q8IVH8 1-894): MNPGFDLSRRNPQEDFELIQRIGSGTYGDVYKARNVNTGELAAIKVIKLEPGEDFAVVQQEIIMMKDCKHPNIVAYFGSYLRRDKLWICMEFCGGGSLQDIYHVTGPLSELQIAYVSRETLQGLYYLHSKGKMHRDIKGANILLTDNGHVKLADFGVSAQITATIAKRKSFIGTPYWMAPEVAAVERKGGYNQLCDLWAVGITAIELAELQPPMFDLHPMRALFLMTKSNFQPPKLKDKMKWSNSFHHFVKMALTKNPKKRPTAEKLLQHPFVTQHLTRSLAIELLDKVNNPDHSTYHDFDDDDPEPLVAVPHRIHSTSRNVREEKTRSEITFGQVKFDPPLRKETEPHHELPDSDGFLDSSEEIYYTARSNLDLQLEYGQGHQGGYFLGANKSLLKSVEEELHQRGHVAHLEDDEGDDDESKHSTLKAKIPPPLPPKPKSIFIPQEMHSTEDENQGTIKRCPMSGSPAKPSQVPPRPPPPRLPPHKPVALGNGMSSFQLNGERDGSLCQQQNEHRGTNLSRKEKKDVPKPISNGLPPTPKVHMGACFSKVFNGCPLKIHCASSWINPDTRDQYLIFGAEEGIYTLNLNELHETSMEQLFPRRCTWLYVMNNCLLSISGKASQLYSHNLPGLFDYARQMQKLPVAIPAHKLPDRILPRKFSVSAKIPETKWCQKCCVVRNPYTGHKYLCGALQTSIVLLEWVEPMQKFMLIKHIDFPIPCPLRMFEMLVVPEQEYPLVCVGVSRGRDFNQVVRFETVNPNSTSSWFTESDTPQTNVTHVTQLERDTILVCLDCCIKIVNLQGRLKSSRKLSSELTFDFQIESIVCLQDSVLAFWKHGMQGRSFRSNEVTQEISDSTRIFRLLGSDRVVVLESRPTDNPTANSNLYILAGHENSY
# Method: as §1
# ADRBK1 (GRK2) = target: T2, ADRBK1 (GRK2) (Homo sapiens, UniProt P25098); assay: SelectScreen kinase assay; details: for Inhibition at 1 µM (%): ADRBK1 (GRK2), ZLYTE, ATP Km app
# T2 sequence (P25098 1-689): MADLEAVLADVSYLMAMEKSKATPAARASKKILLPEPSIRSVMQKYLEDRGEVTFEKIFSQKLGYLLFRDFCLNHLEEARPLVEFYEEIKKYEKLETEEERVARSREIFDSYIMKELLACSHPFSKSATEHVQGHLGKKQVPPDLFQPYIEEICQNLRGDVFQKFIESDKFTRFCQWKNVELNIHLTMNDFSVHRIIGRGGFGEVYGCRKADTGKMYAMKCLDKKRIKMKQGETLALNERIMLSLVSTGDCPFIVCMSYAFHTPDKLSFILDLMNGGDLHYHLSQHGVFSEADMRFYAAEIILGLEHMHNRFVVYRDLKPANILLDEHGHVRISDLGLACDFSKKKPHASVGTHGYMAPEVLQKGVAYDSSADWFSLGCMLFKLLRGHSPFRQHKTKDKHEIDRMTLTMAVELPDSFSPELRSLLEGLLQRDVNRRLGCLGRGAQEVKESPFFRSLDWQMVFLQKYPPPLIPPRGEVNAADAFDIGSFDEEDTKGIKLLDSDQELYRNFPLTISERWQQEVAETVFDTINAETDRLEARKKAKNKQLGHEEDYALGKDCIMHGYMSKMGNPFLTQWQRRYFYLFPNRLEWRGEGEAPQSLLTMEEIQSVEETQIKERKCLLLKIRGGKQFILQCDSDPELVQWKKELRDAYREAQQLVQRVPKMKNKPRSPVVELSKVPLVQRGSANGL
# Method: as §1
# EPHB1 = EPHB1 (Homo sapiens, UniProt P54762); assay: SelectScreen kinase assay
# Method: as §1
# YES1 = YES1 (Homo sapiens, UniProt P07947); assay: SelectScreen kinase assay
# Method: as §1
# ROCK2 = ROCK2 (Homo sapiens, UniProt O75116); assay: SelectScreen kinase assay; details: 1 h, 1 μM WEL028, 1 h preincubation
# Method: as §1
# PDGFRB (PDGFR beta) = PDGFRB (PDGFR beta) (Homo sapiens, UniProt P09619); assay: SelectScreen kinase assay
# Method: as §1
# [1] = 1 h, 1 μM WEL028, 1 h preincubation
# BMPR1A (ALK3), sequence (P36894 24-532): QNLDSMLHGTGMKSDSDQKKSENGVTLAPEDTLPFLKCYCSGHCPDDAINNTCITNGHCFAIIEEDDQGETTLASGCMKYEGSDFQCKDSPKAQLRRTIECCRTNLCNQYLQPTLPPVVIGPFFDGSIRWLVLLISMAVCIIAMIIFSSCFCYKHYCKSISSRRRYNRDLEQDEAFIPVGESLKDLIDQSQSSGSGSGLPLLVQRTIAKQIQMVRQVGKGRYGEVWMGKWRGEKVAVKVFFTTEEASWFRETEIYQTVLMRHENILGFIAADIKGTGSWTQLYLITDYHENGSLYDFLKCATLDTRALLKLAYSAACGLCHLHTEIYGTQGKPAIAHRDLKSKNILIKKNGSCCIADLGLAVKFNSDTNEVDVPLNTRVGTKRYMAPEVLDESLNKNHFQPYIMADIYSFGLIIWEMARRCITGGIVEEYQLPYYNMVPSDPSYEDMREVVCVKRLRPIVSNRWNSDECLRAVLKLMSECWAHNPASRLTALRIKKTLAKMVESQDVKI
# PASK, sequence (Q96RG2 whole entry): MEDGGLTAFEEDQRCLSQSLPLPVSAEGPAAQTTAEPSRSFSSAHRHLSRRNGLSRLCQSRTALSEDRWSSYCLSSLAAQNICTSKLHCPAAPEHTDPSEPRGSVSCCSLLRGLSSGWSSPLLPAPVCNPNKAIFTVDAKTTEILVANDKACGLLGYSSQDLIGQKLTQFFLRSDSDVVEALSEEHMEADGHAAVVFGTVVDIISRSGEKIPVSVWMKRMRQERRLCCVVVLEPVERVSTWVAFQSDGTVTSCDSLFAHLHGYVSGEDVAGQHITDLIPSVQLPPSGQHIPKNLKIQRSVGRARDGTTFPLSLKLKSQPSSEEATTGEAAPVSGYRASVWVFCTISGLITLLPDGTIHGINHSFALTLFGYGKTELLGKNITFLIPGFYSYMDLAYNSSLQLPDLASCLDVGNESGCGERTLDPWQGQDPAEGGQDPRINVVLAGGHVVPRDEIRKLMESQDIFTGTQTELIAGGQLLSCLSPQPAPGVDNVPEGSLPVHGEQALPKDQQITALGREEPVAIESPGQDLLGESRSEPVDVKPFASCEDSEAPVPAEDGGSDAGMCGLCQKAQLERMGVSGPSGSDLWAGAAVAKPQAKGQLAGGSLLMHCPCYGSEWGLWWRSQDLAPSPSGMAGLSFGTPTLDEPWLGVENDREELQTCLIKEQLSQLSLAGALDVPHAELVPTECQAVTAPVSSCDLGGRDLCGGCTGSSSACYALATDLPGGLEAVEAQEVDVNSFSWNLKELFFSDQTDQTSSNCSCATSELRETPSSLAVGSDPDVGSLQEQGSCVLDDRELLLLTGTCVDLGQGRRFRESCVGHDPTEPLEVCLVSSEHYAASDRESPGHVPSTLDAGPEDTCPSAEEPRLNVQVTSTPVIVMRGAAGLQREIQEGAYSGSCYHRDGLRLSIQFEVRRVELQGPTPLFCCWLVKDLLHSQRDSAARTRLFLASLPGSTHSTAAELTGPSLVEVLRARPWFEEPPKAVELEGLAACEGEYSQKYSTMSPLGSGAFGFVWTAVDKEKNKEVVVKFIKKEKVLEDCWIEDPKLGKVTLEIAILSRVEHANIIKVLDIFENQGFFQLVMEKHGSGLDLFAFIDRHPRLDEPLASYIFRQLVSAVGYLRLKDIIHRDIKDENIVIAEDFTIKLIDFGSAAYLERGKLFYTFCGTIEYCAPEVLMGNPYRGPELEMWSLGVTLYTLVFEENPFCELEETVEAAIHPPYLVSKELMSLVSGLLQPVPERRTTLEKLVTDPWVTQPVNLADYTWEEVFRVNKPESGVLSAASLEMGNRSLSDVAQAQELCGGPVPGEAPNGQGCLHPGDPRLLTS
# EPHB1, sequence (P54762 18-984): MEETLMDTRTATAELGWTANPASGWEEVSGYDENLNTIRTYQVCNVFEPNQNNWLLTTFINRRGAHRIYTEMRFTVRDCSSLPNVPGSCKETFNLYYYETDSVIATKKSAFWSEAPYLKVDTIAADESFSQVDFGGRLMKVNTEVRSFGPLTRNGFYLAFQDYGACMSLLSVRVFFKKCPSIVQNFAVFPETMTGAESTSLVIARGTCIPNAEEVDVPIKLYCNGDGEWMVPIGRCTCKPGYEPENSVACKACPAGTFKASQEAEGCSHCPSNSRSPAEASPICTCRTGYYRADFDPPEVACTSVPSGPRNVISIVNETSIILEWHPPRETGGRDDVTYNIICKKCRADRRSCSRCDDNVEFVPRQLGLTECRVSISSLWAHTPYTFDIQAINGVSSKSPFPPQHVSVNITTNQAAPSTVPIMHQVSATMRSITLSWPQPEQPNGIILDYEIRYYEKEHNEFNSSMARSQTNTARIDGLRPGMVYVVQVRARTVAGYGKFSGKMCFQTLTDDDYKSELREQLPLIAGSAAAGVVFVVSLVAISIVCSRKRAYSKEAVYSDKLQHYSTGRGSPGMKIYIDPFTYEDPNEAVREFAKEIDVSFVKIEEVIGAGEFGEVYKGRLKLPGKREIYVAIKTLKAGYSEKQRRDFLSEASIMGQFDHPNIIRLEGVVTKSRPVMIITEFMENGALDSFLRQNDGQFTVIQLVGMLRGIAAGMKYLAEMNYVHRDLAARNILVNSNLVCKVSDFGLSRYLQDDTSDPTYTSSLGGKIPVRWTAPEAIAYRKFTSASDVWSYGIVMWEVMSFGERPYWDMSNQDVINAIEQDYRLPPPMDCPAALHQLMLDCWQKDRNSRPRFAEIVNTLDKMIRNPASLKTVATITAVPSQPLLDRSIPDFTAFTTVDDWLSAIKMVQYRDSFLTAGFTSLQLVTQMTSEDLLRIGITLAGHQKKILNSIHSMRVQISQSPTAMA
# PDGFRB (PDGFR beta), sequence (P09619 33-1106): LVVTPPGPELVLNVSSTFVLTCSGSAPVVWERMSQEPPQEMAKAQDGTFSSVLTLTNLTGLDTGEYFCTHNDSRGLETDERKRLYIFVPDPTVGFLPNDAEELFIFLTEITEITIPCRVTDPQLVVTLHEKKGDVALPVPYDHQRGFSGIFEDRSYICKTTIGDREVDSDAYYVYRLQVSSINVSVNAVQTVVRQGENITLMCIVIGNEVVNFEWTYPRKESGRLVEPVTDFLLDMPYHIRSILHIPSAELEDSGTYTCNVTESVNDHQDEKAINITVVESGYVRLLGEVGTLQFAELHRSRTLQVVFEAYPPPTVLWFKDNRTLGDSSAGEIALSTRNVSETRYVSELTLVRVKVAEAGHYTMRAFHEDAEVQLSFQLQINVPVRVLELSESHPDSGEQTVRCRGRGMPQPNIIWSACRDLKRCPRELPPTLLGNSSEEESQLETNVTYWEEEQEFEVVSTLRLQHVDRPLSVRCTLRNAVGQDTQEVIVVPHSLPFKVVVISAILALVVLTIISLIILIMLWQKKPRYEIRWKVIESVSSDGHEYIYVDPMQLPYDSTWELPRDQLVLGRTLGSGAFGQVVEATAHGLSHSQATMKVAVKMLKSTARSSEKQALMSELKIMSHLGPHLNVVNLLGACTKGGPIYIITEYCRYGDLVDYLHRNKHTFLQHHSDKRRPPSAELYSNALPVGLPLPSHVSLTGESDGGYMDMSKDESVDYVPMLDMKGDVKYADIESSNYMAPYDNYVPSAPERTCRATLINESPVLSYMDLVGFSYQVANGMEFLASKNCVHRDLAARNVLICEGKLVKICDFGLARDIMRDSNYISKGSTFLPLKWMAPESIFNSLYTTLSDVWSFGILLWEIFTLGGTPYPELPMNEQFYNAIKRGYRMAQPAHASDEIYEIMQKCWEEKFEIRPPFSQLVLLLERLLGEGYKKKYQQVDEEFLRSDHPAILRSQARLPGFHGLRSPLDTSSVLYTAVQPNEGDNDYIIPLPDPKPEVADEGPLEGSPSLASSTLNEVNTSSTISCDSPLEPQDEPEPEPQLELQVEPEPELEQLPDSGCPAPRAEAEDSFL
# YES1, sequence (P07947 whole entry): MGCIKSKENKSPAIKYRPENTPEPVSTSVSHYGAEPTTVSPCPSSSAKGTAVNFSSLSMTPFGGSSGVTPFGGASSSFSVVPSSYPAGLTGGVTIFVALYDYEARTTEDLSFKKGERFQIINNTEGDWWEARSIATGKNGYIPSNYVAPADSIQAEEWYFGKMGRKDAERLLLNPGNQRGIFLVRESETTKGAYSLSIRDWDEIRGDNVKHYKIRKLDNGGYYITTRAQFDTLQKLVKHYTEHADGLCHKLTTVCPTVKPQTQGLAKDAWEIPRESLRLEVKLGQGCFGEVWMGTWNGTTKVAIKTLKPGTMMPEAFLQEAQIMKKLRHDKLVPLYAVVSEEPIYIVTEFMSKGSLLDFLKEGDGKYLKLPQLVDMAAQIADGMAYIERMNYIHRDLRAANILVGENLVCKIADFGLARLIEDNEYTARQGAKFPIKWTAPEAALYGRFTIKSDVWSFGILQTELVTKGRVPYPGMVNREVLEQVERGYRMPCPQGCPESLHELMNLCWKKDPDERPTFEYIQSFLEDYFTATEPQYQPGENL
# DAPK2, sequence (Q9UIK4 whole entry): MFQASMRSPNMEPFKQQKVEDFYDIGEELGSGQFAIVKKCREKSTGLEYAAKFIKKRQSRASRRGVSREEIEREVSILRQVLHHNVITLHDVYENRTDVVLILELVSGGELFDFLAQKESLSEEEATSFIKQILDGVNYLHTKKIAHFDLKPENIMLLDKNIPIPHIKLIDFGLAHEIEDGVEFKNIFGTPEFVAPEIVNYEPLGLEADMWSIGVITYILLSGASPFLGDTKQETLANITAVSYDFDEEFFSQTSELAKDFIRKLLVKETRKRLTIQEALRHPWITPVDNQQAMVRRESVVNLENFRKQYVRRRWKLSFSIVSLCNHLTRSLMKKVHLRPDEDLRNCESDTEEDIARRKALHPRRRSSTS
structure (smiles),measurement,setting,value
C#CCOc1ccc(Nc2ncc(Cl)c(Nc3ccccc3NC(=O)C=C)n2)c(OC)c1 [Compound 6],inhibition at 1 µM,CHEK2 (CHK2); [1],4%
same,Inhibition at 1 µM (%),"CHEK2 (CHK2); CHEK2 (CHK2), 1 µM, ZLYTE, ATP Km app",14%
same,inhibition at 1 µM,PAK1; 1 h,8%
same,inhibition at 1 µM,PAK1; read-out: Inhibition at 1 µM (%),8%
same,inhibition at 1 µM,BMPR1A (ALK3); [1],-2%
same,Inhibition at 1 µM (%),BMPR1A (ALK3),2%
same,Inhibition at 1 µM (%),"BMPR1A (ALK3); listed as WEL028, 1 µM",-6%
same,Inhibition (%),"CDK13/cyclin K; 1 μM WEL028, 1 h preincubation",-3%
same,Inhibition at 1 µM (%),"CDK13/cyclin K; CDK13/cyclin K, 1 µM, LanthaScreen Binding, listed as WEL028, 1 µM",-1% and -5%
same,inhibition at 1 µM,DAPK2; [1],10%
same,Inhibition at 1 µM (%),DAPK2,14%
same,Inhibition at 1 µM (%),"DAPK2; listed as WEL028, 1 µM",6%
same,inhibition at 1 µM,HIPK1 (Myak); [1],-4%
same,Inhibition at 1 µM (%),HIPK1 (Myak),-2%
same,Inhibition at 1 µM (%),"HIPK1 (Myak); listed as WEL028, 1 µM",-6%
same,inhibition at 1 µM,AMPK A2/B1/G1; [1],4%
same,Inhibition at 1 µM (%),"AMPK A2/B1/G1; AMPK A2/B1/G1, 1 µM, ZLYTE, ATP Km app",-2%
same,Inhibition of FES in live neutrophils,"endogenous FES^S700C; 100 nM, 1 h",complete and selective inhibition of FES
same,Relative FES labeling (%),"endogenous FES^S700C; Figure 7b, replicates, listed as WEL028",9.291% and 9.41% and 8.966%
same,inhibition at 1 µM,PASK; [1],2%
same,Inhibition at 1 µM (%),PASK,-3%
same,Inhibition at 1 µM (%),"PASK; listed as WEL028, 1 µM",7%
same,Inhibition (%),"MAP4K3 (GLK); 1 μM WEL028, 1 h preincubation",3%
same,Inhibition at 1 µM (%),"MAP4K3 (GLK); MAP4K3 (GLK), 1 µM, LanthaScreen Binding, listed as WEL028, 1 µM",2%
same,inhibition at 1 µM,"MAP4K3 (GLK); read-out: Inhibition at 1 µM (%), MAP4K3 (GLK), 1 µM, LanthaScreen Binding",4%
same,inhibition at 1 µM,ADRBK1 (GRK2); [1],4%
same,Inhibition at 1 µM (%),ADRBK1 (GRK2),2%
same,Inhibition at 1 µM (%),"ADRBK1 (GRK2); listed as WEL028, 1 µM",6%
same,inhibition at 1 µM,EPHB1; [1],0%
same,Inhibition at 1 µM (%),"EPHB1; EPHB1, 1 µM, ZLYTE, ATP Km app, listed as WEL028, 1 µM",-1% and 1%
same,Inhibition at 1 µM (%),"YES1; 1 µM, ZLYTE, ATP Km app, listed as WEL028, 1 µM",10%
same,inhibition at 1 µM,YES1; [1],8%
same,inhibition at 1 µM,"YES1; read-out: Inhibition at 1 µM (%), 1 µM, ZLYTE, ATP Km app",7%
same,inhibition at 1 µM,ROCK2,0%
same,inhibition at 1 µM,PDGFRB (PDGFR beta); [1],22%
same,Inhibition at 1 µM (%),"PDGFRB (PDGFR beta); PDGFRB (PDGFR beta), 1 µM, ZLYTE, ATP Km app, listed as WEL028, 1 µM",23%
same,inhibition at 1 µM,"PDGFRB (PDGFR beta); read-out: Inhibition at 1 µM (%), PDGFRB (PDGFR beta), 1 µM, ZLYTE, ATP Km app",21%
